Assay results reported in US20020119917A1, “ANTI-INFLAMMATORY PEPTIDES DERIVED FROM C-REACTIVE PROTEIN” (priority 1996, published 2002).
Starred links: 1 amine or outer side, 2 acyl side, 3 side chain; linkers in the order of their positions; H or OH if unused. Non-standard residues stand in square brackets, D forms with d. Residues, ends and D or L forms follow the SMILES beside them. No end group written: not given here. *: point of attachment. X1 = CC(C)C[C@H](NC(=O)[C@@H](N)CS*)C(=O)N[C@@H](Cc1c[nH]cn1)C(=O)N[C@@H](Cc1ccccc1)C(=O)O; NH(1-Adamantyl) = C1C2CC3CC1CC(N*)(C2)C3; MeOSuc = COC(=O)CCC(=O)*; Octanoyl = CCCCCCCC(=O)*; Cbz = O=C(OCc1ccccc1)*; CO = O=C([*:1])[*:2]; Ahx = NCCCCCC(=O)O; Sar = CNCC(=O)O

Target: T1, human leukocyte cathepsin G (hCG) (Homo sapiens, UniProt P08311)
T1 construct: Neutrophils (1.4 billion) were isolated from whole blood obtained from a single healthy laboratory donor; from tissue; host or cells: neutrophils from whole blood of a single healthy donor
T1 sequence (P08311 21-244 limits assumed): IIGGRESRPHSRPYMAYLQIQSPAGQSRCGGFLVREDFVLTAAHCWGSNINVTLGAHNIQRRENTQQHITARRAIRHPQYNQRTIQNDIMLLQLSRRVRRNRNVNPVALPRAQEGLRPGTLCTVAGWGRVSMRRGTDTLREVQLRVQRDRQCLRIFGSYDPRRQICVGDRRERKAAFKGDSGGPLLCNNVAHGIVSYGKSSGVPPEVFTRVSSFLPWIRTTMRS
Test: In-vitro inhibition of hCG (conversion of Suc-AAPF-NA)
Format: biochemical
Conditions: not given
Method: (§1) The enzymatic activity was assayed with MeOSuc-AAPV-NA for hLE determination and Suc-AAPF-NA for hCG determination (both in 100 mM Hepes buffer, pH 7.4, containing 0.05% of the […] detergent Brij-35). The activities of the individual enzymatic fractions were 100% free from cross-contamination. […] The fractions containing hLE and hCG were dialyzed each against 0.1% pyridinium acetate, pH 5.3, divided into 20 aliquots, lyophilized, and stored at −20° C. until use.
Similar conditions to hLE inhibition experiments ere used except the substrate: 80 μL of 1.8 mM Suc-AAPF-NA. The enzyme was issolved in 800 μL buffer, and the reaction was monitored every 6 min for 1 hour. The final volume was 240 μL containing: 5% DMSO, 1-500 μM peptide, 600 μM substrate, and 1.2 μg enzyme (about 40 picomol).
For hCG, V is determined by fitting a quadratic equation to the total kinetic data (60 min), using the least squares method and calculating V at t=0.
The inhibitory capability of several CRP-derived peptides was evaluated by inhibiting the enzymatic conversion of Suc-AAPF-NA (as described in Materials and Methods (vi) above).

| Molecule | Ki | hCG inhibitory capability (in words) |
| --- | --- | --- |
| SFTVGGSEILFEVPEVTVAPVHICT [Peptide 3a] | 180 ± 30 µM | – |
| CC[C@H](C)[C@H](NC(=O)[C@H](Cc1c[nH]cn1)NC(=O)[C@@H](NC(=O)[C@@H]1CCCN1C(=O)[C@H](C)NC(=O)[C@@H](NC(=O)[C@@H](NC(=O)[C@@H](N)C(C)C)[C@@H](C)O)C(C)C)C(C)C)C(=O)N[C@@H](CSSC[C@H](N)C(=O)N[C@@H](CC(C)C)C(=O)N[C@@H](Cc1c[nH]cn1)C(=O)N[C@@H](Cc1ccccc1)C(=O)O)C(=O)O [Peptide 4, Val89-Thr-Val-Ala-Pro-Val-His-Ile-Cys97-Cys36-His-Leu-Phe39] (H-VTVAPVHIC(X1)-OH) | – | completely inactive |
| CC[C@H](C)[C@H](NC(=O)[C@H](Cc1c[nH]cn1)NC(=O)[C@@H](NC(=O)[C@@H]1CCCN1C(=O)[C@H](C)NC(=O)[C@@H](NC(=O)[C@@H](NC(=O)[C@@H](NC(=O)[C@H](CCC(=O)O)NC(=O)[C@@H]1CCCN1C(=O)[C@@H](NC(=O)[C@H](CCC(=O)O)NC(=O)[C@H](Cc1ccccc1)NC(=O)[C@H](CC(C)C)NC(=O)[C@@H](NC(=O)[C@H](CCC(=O)O)NC(=O)[C@H](CO)NC(=O)CN)[C@@H](C)CC)C(C)C)C(C)C)[C@@H](C)O)C(C)C)C(C)C)C(=O)N[C@@H](CSSC[C@H](N)C(=O)N[C@@H](CC(C)C)C(=O)N[C@@H](Cc1c[nH]cn1)C(=O)N[C@@H](Cc1ccccc1)C(=O)O)C(=O)O [Peptide 5, Gly79-Ser-Glu-Ile-Leu-Phe-Glu-Val-Pro-Glu-Val-Thr-Val-Ala-Pro-Val-His-Ile-Cys97-Cys36-His-Leu-Phe39] (H-GSEILFEVPEVTVAPVHIC(X1)-OH) | – | completely inactive |

Target: T2, human leukocyte elastase (hLE) (Homo sapiens, UniProt P08246)
T2 construct: Neutrophils (1.4 billion) were isolated from whole blood obtained from a single healthy laboratory donor; from tissue; host or cells: neutrophils from whole blood of a single healthy donor
T2 sequence (P08246 30-247 limits assumed): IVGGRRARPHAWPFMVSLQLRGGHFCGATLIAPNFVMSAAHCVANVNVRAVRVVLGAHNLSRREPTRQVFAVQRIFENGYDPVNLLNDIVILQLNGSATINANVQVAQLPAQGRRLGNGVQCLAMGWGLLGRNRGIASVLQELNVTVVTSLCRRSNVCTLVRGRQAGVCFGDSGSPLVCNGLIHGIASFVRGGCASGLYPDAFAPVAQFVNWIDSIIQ
Test: In-vitro inhibition of hLE (cleavage of MeOSuc-AAPV-NA)
Format: biochemical
Conditions: not given
Method: as §1
Peptides were dissolved in 100 mM Hepes buffer pH 7.4 containing 0.1% Brij-35 with 10% DMSO to yield 600 μM solutions, which were used to make further dilutions with the same buffer, and 80 μL aliquots were added in duplicates to 96-well plates. The substrate, 600 or 900 μM MeOSuc-AAPV-NA in the same buffer with 5% DMSO, was added to each well in addition to the blank wells, and the plate was placed in the plate reader equilibrated to 37° C. (Dynateck MR-6000). Lyophilized aliquots of hLE were dissolved in 1600 μL of 100 mM Hepes buffer without DMSO, and 80 μL of the enzyme solution was added to the peptides and substrate to initiate the reaction. […] The final volume was 240 μL containing: 5% DMSO, 1-200 μM of peptide, 200 μM substrate, and 0.75 μg (about 25 picomol) enzyme.
For hLE, V is determined by fitting a linear equation to the first 6 time-points (10 min) of the kinetics data using the least squares method. […] From calculating the error in the slope of the equation, the relative error for Ki was deduced:
Ki={slope*(1+[S]/Km)}^−1 because Ki=[I]*{(1+[S]/Km)*(Vo/Vi−1)}^−1.
The hLE inhibitory capability of CRP-derived peptides was evaluated by inhibiting the enzymatic cleavage of MeOSuc-AAPV-NA as described in Materials and Methods (section v).

| Molecule | Ki | hLE inhibitory capability (in words) |
| --- | --- | --- |
| SFTVGGSEILFEVPEVTVAPVHICT [Peptide 3a] | 20 ± 3 µM | – |
| CCCCCCCC(=O)N[C@H](C(=O)N[C@H](C(=O)N[C@H](C(=O)N[C@@H](C)C(=O)N1CCC[C@H]1C(=O)N[C@H](C(=O)N[C@@H](Cc1c[nH]cn1)C(=O)N[C@H](C(=O)O)[C@@H](C)CC)C(C)C)C(C)C)[C@@H](C)O)C(C)C [Peptide 19, Octanoyl-Val89-Thr-Val-Ala-Pro-Val-His-Ile96] (Octanoyl-VTVAPVHI-OH) | 280 ± 25 µM | – |
| CC[C@H](C)[C@H](NC(=O)[C@@H](Cc1c[nH]cn1)NC(=O)[C@H](NC(=O)[C@H]1CCCN1C(=O)[C@H](C)NC(=O)[C@@H](NC(=O)[C@@H](NC(=O)[C@@H](N)C(C)C)[C@@H](C)O)C(C)C)C(C)C)C(=O)O [Peptide 28, Val89-Thr-Val-Ala-(D)Pro-(D)Val-(D)His-Ile96] (H-VTVA[dP][dV][dH]I-OH; N-terminus and C-terminus assumed) | 2300 ± 300 µM | – |
| Val-Ala-Pro-Val (VAPV; printed: Val-Ala-Pro-Val) [reference compound] | – | minute |
| CC[C@H](C)[C@H](NC(=O)[C@H](Cc1c[nH]cn1)NC(=O)[C@@H](NC(=O)CN(C)C(=O)[C@H](C)NC(=O)[C@@H](NC(=O)[C@@H](NC(=O)[C@@H](N)C(C)C)[C@@H](C)O)C(C)C)C(C)C)C(=O)O [Peptide 30, Val89-Thr-Val-Ala-Sarcosine-Val-His-Ile96] (H-VTVA[Sar]VHI-OH; N-terminus and C-terminus assumed) | – | almost completely lost |
| Thr76-Val-Gly-Gly-Ser80 [reference compound] | – | No significant inhibition |
| Asn160-Met-Trp-Asp-Phe-Val165 [reference compound] | – | No significant inhibition |
| CC[C@H](C)[C@H](NC(=O)[C@H](Cc1c[nH]cn1)NC(=O)[C@@H](NC(=O)[C@H]1CCCN1C(=O)[C@H](C)NC(=O)[C@@H](NC(=O)[C@@H](NC(=O)[C@@H](N)C(C)C)[C@@H](C)O)C(C)C)C(C)C)C(=O)O [Peptide 27, Val89-Thr-Val-Ala-(D)Pro-Val-His-Ile96] (H-VTVA[dP]VHI-OH; N-terminus and C-terminus assumed) | 560 ± 170 µM | – |
| Asp112-Gly-Lys-Pro-Arg-Val-Arg-Lys119 [reference compound] | – | No significant inhibition |
| CC[C@H](C)[C@H](NC(=O)[C@H](Cc1c[nH]cn1)NC(=O)[C@@H](NC(=O)[C@@H]1CCCN1C(=O)[C@H](C)NC(=O)[C@@H](NC(=O)[C@@H](NC(=O)[C@@H](NC(=O)NC12CC3CC(CC(C3)C1)C2)C(C)C)[C@@H](C)O)C(C)C)C(C)C)C(=O)O [Peptide 17, Adamantyl-NH-CO-Val89-Thr-Val-Ala-Pro-Val-His-Ile96] ({NH(1-Adamantyl)-CO}-VTVAPVHI-OH) | 130 ± 15 µM | – |
| VTVAPVHIP-NH2 [Peptide 12, Val89-Thr-Val-Ala-Pro-Val-His-Ile96-Pro-NH2] | 70 ± 5 µM | – |
| CC[C@H](C)[C@H](NC(=O)[C@H](Cc1c[nH]cn1)NC(=O)[C@@H](NC(=O)[C@@H]1CCCN1C(=O)[C@H](C)NC(=O)[C@@H](NC(=O)[C@@H](NC(=O)[C@@H](NC(=O)CCCCCNC(C)=O)C(C)C)[C@@H](C)O)C(C)C)C(C)C)C(=O)O [Peptide 22, Acetyl-aminocaproyl-Val89-Thr-Val-Ala-Pro-Val-His-Ile96] (Ac-[Ahx]VTVAPVHI-OH) | 210 ± 30 µM | – |
| CC[C@H](C)[C@H](NC(=O)[C@H](Cc1c[nH]cn1)NC(=O)[C@@H](NC(=O)[C@@H]1CCCN1C(=O)[C@H](C)NC(=O)[C@@H](NC(=O)[C@@H](NC(=O)[C@@H](NC(=O)OCc1ccccc1)C(C)C)[C@@H](C)O)C(C)C)C(C)C)C(=O)O [Peptide 20, CBz-Val89-Thr-Val-Ala-Pro-Val-His-Ile96] (Cbz-VTVAPVHI-OH) | 165 ± 35 µM | – |
| Val153-Gly-Asp-Ile-Gly-Asn-Val159 [reference compound] | – | No significant inhibition |
| Ser18-Tyr-Val-Ser-Leu-Lys23 [reference compound] | – | No significant inhibition |
| Thr200-Lys-Pro-Gln-Leu-Trp-Pro206 [reference compound] | – | No significant inhibition |
| Asp70-Ile-Gly-Tyr-Ser74 [reference compound] | – | No significant inhibition |
| VTVAPVHIPP-NH2 [Peptide 14, Val89-Thr-Val-Ala-Pro-Val-His-Ile96-Pro-Pro-NH2] | 85 ± 10 µM | – |
| Phe84-Glu-Val-Pro-Glu-Val-Thr90 [reference compound] | – | No significant inhibition |
| Gln203-Leu-Trp-Pro206 [reference compound] | – | No significant inhibition |
| CC[C@H](C)[C@H](NC(=O)[C@H](Cc1c[nH]cn1)NC(=O)[C@@H](NC(=O)[C@@H]1CCCN1C(=O)[C@H](C)NC(=O)[C@@H](NC(=O)[C@@H](NC(=O)[C@@H](NC(=O)CCC(=O)OC)C(C)C)[C@@H](C)O)C(C)C)C(C)C)C(=O)O [Peptide 15, MeOSuc-Val89-Thr-Val-Ala-Pro-Val-His-Ile96] (MeOSuc-VTVAPVHI-OH) | 160 ± 30 µM | – |

Same assay, conditions: substrate MeOSuc-AAPV-NA, 100 mM Hepes pH 7.4, 37° C.; read-out: hLE Ki

| Molecule | Ki |
| --- | --- |
| VTVAPVSI [Peptide 9, Val89-Thr-Val-Ala-Pro-Val-Ser-Ile96] | 200 ± 20 µM |
| VAPVHI [Peptide 26, Val91-Ala-Pro-Val-His-Ile96] | 1000 ± 250 µM |
| CC[C@H](C)[C@H](NC(=O)[C@H](Cc1c[nH]cn1)NC(=O)[C@@H](NC(=O)CN(C)C(=O)[C@H](C)NC(=O)[C@@H](NC(=O)[C@@H](NC(=O)[C@@H](N)C(C)C)[C@@H](C)O)C(C)C)C(C)C)C(=O)O [Peptide 30, Val89-Thr-Val-Ala-Sarcosine-Val-His-Ile96] (H-VTVA[Sar]VHI-OH; N-terminus and C-terminus assumed) | 1400 ± 500 µM |
| VTVAPV [Peptide 25, Val89-Thr-Val-Ala-Pro-Val94] | 900 ± 300 µM |
| LEAIPMSI [Peptide 24, Leu-Glu-Ala-Ile-Pro-Met-Ser-Ile, reference compound] | 350 ± 70 µM |
